Activity calls are given as the source filed them. No rule for the calls is given here.
Target: Metabotropic glutamate receptor 4 (Homo sapiens) (UniProt Q14833)
Test: mGlu4 positive allosteric modulator potency, dose response, selectivity assay for mGlu7/mGlu8 PAM project, CHO Gqi5 cells, Fluo-4 calcium (AID 743423)
Settings: Fluo-4 calcium fluorescence

Chain of Metabotropic glutamate receptor 4 (Homo sapiens) (Q14833 whole entry, looked up): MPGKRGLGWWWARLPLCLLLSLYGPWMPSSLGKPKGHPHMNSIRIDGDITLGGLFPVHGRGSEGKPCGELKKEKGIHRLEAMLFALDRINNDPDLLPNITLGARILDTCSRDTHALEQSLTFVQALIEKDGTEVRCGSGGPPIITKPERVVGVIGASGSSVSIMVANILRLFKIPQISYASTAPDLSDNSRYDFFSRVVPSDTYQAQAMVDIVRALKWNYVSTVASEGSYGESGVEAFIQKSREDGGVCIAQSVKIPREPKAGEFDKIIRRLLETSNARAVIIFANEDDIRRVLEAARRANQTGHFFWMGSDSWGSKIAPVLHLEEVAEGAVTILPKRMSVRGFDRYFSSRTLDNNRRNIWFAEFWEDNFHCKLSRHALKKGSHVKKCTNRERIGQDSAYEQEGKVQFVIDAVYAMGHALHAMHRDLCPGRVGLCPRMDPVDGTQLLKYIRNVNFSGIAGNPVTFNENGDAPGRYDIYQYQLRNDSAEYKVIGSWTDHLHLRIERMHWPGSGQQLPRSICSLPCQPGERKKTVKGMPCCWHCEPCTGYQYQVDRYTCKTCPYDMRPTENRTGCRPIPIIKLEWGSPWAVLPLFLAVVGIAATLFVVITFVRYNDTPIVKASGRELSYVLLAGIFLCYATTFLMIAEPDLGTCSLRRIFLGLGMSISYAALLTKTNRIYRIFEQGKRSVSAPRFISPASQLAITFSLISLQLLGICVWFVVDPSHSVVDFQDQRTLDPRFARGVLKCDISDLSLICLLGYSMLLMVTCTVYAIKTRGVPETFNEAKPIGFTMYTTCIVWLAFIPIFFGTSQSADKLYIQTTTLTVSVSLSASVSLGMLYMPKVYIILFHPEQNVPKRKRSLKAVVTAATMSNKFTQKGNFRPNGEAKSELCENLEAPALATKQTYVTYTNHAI

| SMILES | EC50 [µM] |
| --- | --- |
| CCOc1ccc(-n2c(C)cc(C(=O)CSCc3ccc(OC)cc3)c2C)cc1 | 10 |
| CC(=O)Nc1ccc(SCC(=O)c2cc(C)n(-c3nc(C)cs3)c2C)cc1 | 10 |
| COC(=O)c1ccc(-n2c(C)cc(C(=O)COc3ccc(NC(C)=O)cc3)c2C)cc1 | 10 |
| CCn1c(C)cc(C(=O)CSc2ccc(NC(C)=O)cc2)c1C | 10 |
| CC(=O)Nc1ccc(SCC(=O)c2cc(C)n(CC3CCCO3)c2C)cc1 (stereo not drawn) | 10 |
| CC(=O)Nc1ccc(OCC(=O)c2cc(C)n(-c3ccc(OC(F)F)cc3)c2C)cc1 | 10 |
| COc1ccc(SCC(=O)c2cc(C)n(-c3ccc(OC(F)F)cc3)c2C)cc1 | 10 |
| CCOc1ccc(-n2c(C)cc(C(=O)CSc3ccc(OC)cc3)c2C)cc1 | 10 |

Next, values leading:

| EC50 [µM] | SMILES |
| --- | --- |
| 10 | COC(=O)c1ccc(-n2c(C)cc(C(=O)CSCc3cccc(C)c3)c2C)cc1 |
| 10 | COC(=O)c1ccc(-n2c(C)cc(C(=O)COc3ccc(OC(C)=O)cc3)c2C)cc1 |
| 10 | CC(=O)Nc1ccc(SCC(=O)c2cc(C)n(-c3ccc(S(N)(=O)=O)cc3)c2C)cc1 |
| 10 | COC(=O)c1ccc(-n2c(C)cc(C(=O)CSc3ccc(N(C)C(C)=O)cc3)c2C)cc1 |
| 3.43 | COC(=O)c1ccc(-n2c(C)cc(C(=O)CSc3ccc(NC(C)=O)cc3)c2C)cc1 |
| 3.3 | CC(=O)Nc1ccc(SCC(=O)c2cc(C)n(-c3cccc(F)c3)c2C)cc1 |
| 2.6 | CC(=O)Nc1ccc(SCC(=O)c2cc(C)n(CCc3cccs3)c2C)cc1 |
| 2.2 | CC(=O)Nc1ccc(SCC(=O)c2cc(C)n(CC3COc4ccccc4O3)c2C)cc1 (stereo not drawn) |
| 1 | COC(=O)c1ccc(-n2c(C)cc(C(=O)CSCc3ccc(OC)cc3)c2C)cc1 |

Same assay, conditions: Fluo-4 calcium fluorescence, at 30 µM (top of the series)

| % glutamate max response | SMILES |
| --- | --- |
| inactive | CCOc1ccc(-n2c(C)cc(C(=O)CSCc3cccc(C)c3)c2C)cc1 |
| inactive | Cc1ccc(CSCC(=O)c2cc(C)n(-c3ccc(OC(F)F)cc3)c2C)cc1 |
| inactive | COC(=O)c1ccc(-n2c(C)cc(C(=O)COc3cccc(N(C)C)c3)c2C)cc1 |
| inactive | COc1ccc(CSCC(=O)c2cc(C)n(-c3ccc(OC(F)F)cc3)c2C)cc1 |
| 22.3 | CC(=O)Nc1ccc(SCC(=O)c2cc(C)n(-c3ccccc3F)c2C)cc1 |
| inactive | COC(=O)c1ccc(-n2c(C)cc(C(=O)CNc3ccc(C(=O)O)cc3)c2C)cc1 |

Reference: PubChem BioAssay AID743423 (Vanderbilt Specialized Chemistry Center, 2014)
